Here are results for one compound from ChEMBL document CHEMBL1255390, “Clinical pharmacodynamics of cefepime in patients infected with Pseudomonas aeruginosa” (2010).

Values after ≈ are worked out from the molar mass of the structure shown.

Common to all, as to type: functional
The nature of experiment [1]: fT>MIC in Pseudomonas aeruginosa infected patient at 2 g,iv administered as 3 hrs infusion every 8 hrs.
Experiment [2] in a line: fT>MIC in Pseudomonas aeruginosa infected patient.
The subject of experiment [3] is Pseudomonas aeruginosa. In words: Antimicrobial activity against Pseudomonas aeruginosa isolated from infected patient by Etest method.

In general, MIC50 refers to the lowest concentration that inhibits either 50% of growth or 50% of the strains tested, depending on the study. By MIC90 is commonly meant the lowest concentration that inhibits either 90% of growth or 90% of the strains tested, depending on the study. A higher MIC90 goes with lower susceptibility. Regarding `CO/N=C(\C(=O)N[C@@H]1C(=O)N2C(C(=O)[O-])=C(C[N+]3(C)CCCC3)CS[C@H]12)c1csc(N)n1` [CEFEPIME], the entries for the “fT>MIC” value in experiment [1] and in experiment [2] were greater than 60% and 85.2%, respectively. Moreover, the MIC50 in experiment [3] worked out at 3 µg/mL (≈ 6.24 µM). For the same compound, in experiment [3], the MIC90 was found to be 16 µg/mL (≈ 33.3 µM).
